Laboratory results taken from patent US20090221656A1, “Drug Combinations” (priority 2006, published 2009).

Legend:
[1] = system: dopamine β-hydroxylase (DBH); test: NA and DA tissue levels in heart and brain after administration of Compound 1; type: in vivo, mice and rats
Description: (§1) Compound 1 ((R)-5-(2-aminoethyl)-1-(6,8-difluorochroman-3-yl)-1,3-dihydroimidazole-2-thione hydrochloride) is a new chemical entity that integrates a series of potent inhibitors of dopamine β-hydroxylase (DBH) that were designed and synthesised incorporating modifications to the core structure of nepicastat. The aim was to provide new DBH inhibitors exerting minimal effects on dopamine (DA) and noradrenaline (NA) levels in the brain. Compound 1 is in a fact a potent and peripherally-selective DBH inhibitor. […] Compound 1 is thus presented as a candidate for clinical evaluation for the treatment of chronic heart failure and hypertension. Compound 1, together with a series of related compounds, is described in WO 2004/033447.

[2] = as above; type: in vivo, mice and rats; conditions: mouse and rat, in vivo; mice and rats; after administration
Description: as §1

[3] = mice and rats, at Tmax (9 h after administration)

In the case of `Cl.NCCc1c[nH]c(=S)n1[C@H]1COc2c(F)cc(F)cc2C1` [Compound 1, (R)-5-(2-aminoethyl)-1-(6,8-difluorochroman-3-yl)-1,3-dihydroimidazole-2-thione hydrochloride], the “DA tissue levels in brain” value ([1]; brain) is reported as “failed to affect”, the “NA tissue levels in brain” value ([1]; brain) is reported as “failed to affect” and the “NA levels in the left atrium” value [1, 3] is reported as “reduced NA levels in a dose-dependent manner”. For the same compound, the “NA levels in the left ventricle” value [1, 3] was “reduced NA levels in a dose-dependent manner”, the “dose at which the maximal inhibitory effect on NA levels was attained” value ([1]; mice and rats, left atrium and left ventricle, 9 h after administration) was 100 mg/kg and the Tmax [2] was 9 h.
